{"source": "paper PMC4810081", "about": "“Venetoclax (ABT-199) Might Act as a Perpetrator in Pharmacokinetic Drug–Drug Interactions” (Pharmaceutics, 2016)", "key": {"[1]": {"molecular_target": "T1, CYP2B6 (Homo sapiens, UniProt P20813)", "T1 construct": "purchased Becton Dickinson Biosciences (Heidelberg, Germany)", "T1 sequence (P20813 whole entry)": "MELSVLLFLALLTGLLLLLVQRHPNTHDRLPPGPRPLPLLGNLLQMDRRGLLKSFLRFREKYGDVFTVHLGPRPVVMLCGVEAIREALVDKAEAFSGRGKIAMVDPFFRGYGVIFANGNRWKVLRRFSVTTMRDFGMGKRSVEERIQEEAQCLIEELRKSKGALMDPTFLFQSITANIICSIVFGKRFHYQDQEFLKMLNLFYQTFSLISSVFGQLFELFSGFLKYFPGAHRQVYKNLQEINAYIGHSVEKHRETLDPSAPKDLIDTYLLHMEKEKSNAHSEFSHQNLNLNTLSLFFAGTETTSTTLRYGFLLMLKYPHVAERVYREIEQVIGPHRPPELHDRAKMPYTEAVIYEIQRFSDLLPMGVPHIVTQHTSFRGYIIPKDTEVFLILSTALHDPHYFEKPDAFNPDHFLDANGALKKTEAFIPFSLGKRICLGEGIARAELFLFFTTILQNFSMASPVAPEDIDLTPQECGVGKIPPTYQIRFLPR", "experiment": "CYP2B6 inhibition, CYP2B6/EFC High Throughput Inhibitor Screening Kit", "type": "in vitro ADME", "method": "(§1) Inhibition studies for CYP2B6, CYP2D6, CYP2C19 and CYP3A4 were performed with the CYP2B6/EFC, CYP2D6/AMMC, the CYP2C19/CEC, and the CYP3A4/BFC High Throughput Inhibitor Screening Kit according to the manufacturer’s instructions. The kits contain the respective recombinant CYP and fluorogenic substrates, which are blocked dyes emitting a fluorescence signal when cleaved by the enzyme. For testing CYP1A2 inhibition, the P450-Glo CYP1A2 Screening System was used according to the manufacturer’s instructions. The kit contains the luminogenic CYP1A2 substrate luciferin-ME, which is converted by CYP1A2 into luciferin-generating light when incubated with the luciferin detection reagent of the kit. Eight concentrations of venetoclax in duplicates (0.009–20 µM) were tested in the fluorescence assays, and eight concentrations in triplicate (0.05–100 µM) were tested for the luminogenic assay. Each experiment was conducted in triplicate."}, "[2]": {"tested_on": "LLC-PK1", "experiment": "Growth inhibition assay in LLC-PK1 cells", "type": "cell-based, porcine", "details": "Sus scrofa", "method": "LLC-PK1 and L-MDR1 cells. L-MDR1 cells, a porcine kidney epithelial cell line over-expressing the human ABCB1 gene and the corresponding parental control cell line LLC-PK1 (available from ATCC, Manassas, VA, USA) were used to assess the sensitivity of cells with and without P-gp over-expression. L-MDR1 cells were kindly provided by A. H. Schinkel (The Netherlands Cancer Institute, Division of Experimental Therapy, Amsterdam, The Netherlands). The cells were cultured under standard cell culture conditions with medium M199 supplemented with 10% FCS, 2 mM of glutamine, 100 U/mL of penicillin, and 100 µg/mL of streptomycin sulfate. To maintain P-gp/ABCB1 expression the culture medium for L-MDR1 was supplemented with 0.64 µM of vincristine. One day before seeding the cells for the growth inhibition assay, both cell lines were fed with a vincristine-free culture medium.\nGrowth inhibition assays in LS180 cells were conducted to determine suitable maximum concentrations for the induction assay without profound antiproliferative effects. Proliferation was quantified by crystal violet staining of the surviving cells as described previously. Each experiment was performed at least in triplicate with n = 8 wells for each concentration (0.1–100 µM). […]"}, "[3]": {"tested_on": "ABCB1", "experiment": "Induction assay, ABCB1 mRNA by real-time RT-PCR in LS180 cells", "type": "in vitro ADME, human", "details": "four days, at higher concentrations", "method": "(§2) LS180 cells. The human colon adenocarcinoma cell line LS180 (available at ATCC, Manassas, VA, USA) is one of the standard models for investigating pregnane X receptor (PXR) and aryl hydrocarbon receptor (AhR) mediated induction and was thus used for induction experiments. Cells were cultured under standard cell culture conditions with DMEM supplemented with 10% FCS, 2 mM of glutamine, 100 U/mL of penicillin, 100 µg/mL of streptomycin sulfate, and 0.1 mM of nonessential amino acids.\n(§3) For the induction experiments, LS180 cells were seeded in 75 cm^2 culturing flasks and incubated for three days. […]\n(§4) RNA was isolated using the GenElute™ Mammalian Total RNA Miniprep Kit, and cDNA was synthesized with the RevertAid™ H Minus First Strand cDNA Synthesis Kit according to the manufacturer's instructions. mRNA expression was quantified by real-time RT-PCR with the LightCycler® 480 (Roche Applied Science, Mannheim, Germany) as described previously. […] Data were evaluated via calibrator-normalized relative quantification with efficiency correction using the LightCycler® 480 software version 1.5 (Roche Applied Science, Mannheim, Germany). […] The following target genes were quantified: CYP1A1, CYP1A2, CYP3A4, ABCB1, ABCC2, ABCG2, SLCO1B1 (coding for OATP1B1), UDP-glucuronosyltransferase 1A3 (UGT1A3), and UGT1A9."}, "[4]": {"molecular_target": "T2, CYP2D6 (Homo sapiens, UniProt P10635)", "T2 construct": "purchased Becton Dickinson Biosciences (Heidelberg, Germany)", "T2 sequence (P10635 whole entry)": "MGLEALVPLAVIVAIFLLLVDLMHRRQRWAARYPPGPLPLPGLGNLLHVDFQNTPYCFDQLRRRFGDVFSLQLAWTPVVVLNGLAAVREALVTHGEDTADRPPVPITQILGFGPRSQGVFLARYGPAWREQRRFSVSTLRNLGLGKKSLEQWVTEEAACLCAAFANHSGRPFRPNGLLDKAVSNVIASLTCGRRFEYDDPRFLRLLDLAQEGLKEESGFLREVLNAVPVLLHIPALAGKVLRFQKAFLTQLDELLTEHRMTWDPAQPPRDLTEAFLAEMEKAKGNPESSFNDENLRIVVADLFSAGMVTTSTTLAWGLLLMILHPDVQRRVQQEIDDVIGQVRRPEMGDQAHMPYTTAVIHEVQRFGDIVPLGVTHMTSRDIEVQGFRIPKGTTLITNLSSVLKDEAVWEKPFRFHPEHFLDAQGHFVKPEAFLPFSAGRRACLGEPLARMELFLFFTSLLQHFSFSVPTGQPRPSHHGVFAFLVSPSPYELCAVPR", "experiment": "CYP2D6 inhibition, CYP2D6/AMMC High Throughput Inhibitor Screening Kit", "type": "in vitro ADME", "details": "recombinant CYP, fluorogenic substrate, 0.009–20 µM tested", "method": "as §1"}, "[5]": {"tested_on": "SLCO1B1", "experiment": "Induction assay, SLCO1B1 mRNA by real-time RT-PCR in LS180 cells", "type": "in vitro ADME, human", "details": "four days, at 5 µM", "method": "as §2, §3, §4"}, "[6]": {"tested_on": "CYP1A2", "experiment": "Induction assay, CYP1A2 mRNA by real-time RT-PCR in LS180 cells", "type": "in vitro ADME, human", "details": "four days, 10 µM", "method": "as §2, §3, §4"}, "[7]": {"tested_on": "UGT1A9", "experiment": "Induction assay, UGT1A9 mRNA by real-time RT-PCR in LS180 cells", "type": "in vitro ADME, human", "details": "four days, 10 µM", "method": "as §2, §3, §4"}, "[8]": {"molecular_target": "T3, CYP2C19 (Homo sapiens, UniProt P33261)", "T3 construct": "purchased Becton Dickinson Biosciences (Heidelberg, Germany)", "T3 sequence (P33261 whole entry)": "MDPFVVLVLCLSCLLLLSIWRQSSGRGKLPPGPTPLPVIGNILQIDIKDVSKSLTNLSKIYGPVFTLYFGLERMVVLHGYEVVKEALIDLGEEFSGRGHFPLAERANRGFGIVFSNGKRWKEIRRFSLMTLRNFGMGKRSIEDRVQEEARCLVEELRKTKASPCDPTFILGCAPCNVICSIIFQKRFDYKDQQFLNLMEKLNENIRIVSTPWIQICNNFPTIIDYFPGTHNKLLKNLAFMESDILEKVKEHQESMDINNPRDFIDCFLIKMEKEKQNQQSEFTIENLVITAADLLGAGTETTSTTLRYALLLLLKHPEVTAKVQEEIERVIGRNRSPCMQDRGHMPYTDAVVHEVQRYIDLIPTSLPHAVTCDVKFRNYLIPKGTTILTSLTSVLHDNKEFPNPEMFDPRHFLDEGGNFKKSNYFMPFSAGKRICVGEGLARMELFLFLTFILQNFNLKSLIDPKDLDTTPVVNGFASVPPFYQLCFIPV", "experiment": "CYP2C19 inhibition, CYP2C19/CEC High Throughput Inhibitor Screening Kit", "type": "in vitro ADME", "details": "recombinant CYP, fluorogenic substrate", "method": "as §1"}, "[9]": {"molecular_target": "T4, OATP1B3 (Homo sapiens, UniProt Q9NPD5)", "T4 construct": "expressed in transfected cells; host or cells: HEK293 (HEK-OATP1B3; gift of D. Keppler)", "T4 sequence (Q9NPD5 whole entry)": "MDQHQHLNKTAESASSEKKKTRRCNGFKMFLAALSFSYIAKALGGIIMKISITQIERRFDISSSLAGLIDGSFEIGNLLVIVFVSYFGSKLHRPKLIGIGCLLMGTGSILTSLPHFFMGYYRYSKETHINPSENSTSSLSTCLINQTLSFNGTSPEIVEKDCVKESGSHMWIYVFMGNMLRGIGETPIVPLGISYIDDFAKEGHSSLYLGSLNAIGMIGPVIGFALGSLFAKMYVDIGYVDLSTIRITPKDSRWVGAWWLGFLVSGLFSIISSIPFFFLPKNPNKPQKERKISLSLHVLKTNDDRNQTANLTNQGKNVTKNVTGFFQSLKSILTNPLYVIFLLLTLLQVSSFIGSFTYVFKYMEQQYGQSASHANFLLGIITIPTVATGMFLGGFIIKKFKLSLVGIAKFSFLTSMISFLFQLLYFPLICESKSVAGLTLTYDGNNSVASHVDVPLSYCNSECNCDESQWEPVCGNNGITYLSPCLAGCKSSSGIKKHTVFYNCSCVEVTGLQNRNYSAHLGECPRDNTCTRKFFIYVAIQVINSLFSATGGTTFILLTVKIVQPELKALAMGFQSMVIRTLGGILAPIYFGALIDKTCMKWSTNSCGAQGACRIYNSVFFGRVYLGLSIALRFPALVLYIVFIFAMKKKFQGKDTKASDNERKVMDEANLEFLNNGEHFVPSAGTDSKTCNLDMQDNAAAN", "experiment": "OATP1B3 inhibition, 8-FcA uptake in HEK-OATP1B3 cells", "type": "in vitro ADME", "method": "HEK293 cells. For assessing inhibition of OATP1B1 and OATP1B3, the human embryonic kidney cell line HEK293 stably transfected with OATP1B1 (HEK-OATP1B1), OATP1B3 (HEK-OATP1B3), or the empty control vector (HEK293-VCG418) were used. Cells were cultured under standard cell culture conditions with DMEM supplemented with 10% FCS, 2 mM of glutamine, 100 U/mL of penicillin, 100 µg/mL of streptomycin sulfate, and 800 µg/mL of G418 to maintain over-expression. Cells were kindly provided by D. Keppler (German Cancer Research Centre, Heidelberg, Germany).\nInhibition of OATP1B1 and OATP1B3 was analyzed in HEK-OATP1B1 and HEK-OATP1B3 cells by quantifying the uptake of the fluorescent substrate 8-FcA by flow cytometry as described previously. HEK293-VCG418 cells were used as a control. Inhibition of OATPs leads to a reduced uptake of 8-FcA into the cells. Each experiment was performed at least in triplicate, and venetoclax was tested from 0.05 up to 100 µM."}}, "data": [{"smiles": "CC1(C)CCC(CN2CCN(c3ccc(C(=O)NS(=O)(=O)c4ccc(NCC5CCOCC5)c([N+](=O)[O-])c4)c(Oc4cnc5[nH]ccc5c4)c3)CC2)=C(c2ccc(Cl)cc2)C1", "note": "[Venetoclax]", "values": [{"measurement": "increase of CYP2B6 activity", "setting": "[1]; at 20 µM", "result": 1.7, "unit": "fold"}, {"measurement": "IC50 CYP2B6 inhibition", "setting": "[1]; recombinant CYP, fluorogenic substrate, 0.009–20 µM tested", "result": "activation"}, {"measurement": "IC50", "setting": "[2]; LLC-PK1, LLC-PK1 + LY335979 (1 µM)", "result": "24.9 ± 1", "unit": "µM"}, {"measurement": "IC50", "setting": "[2]; LLC-PK1, LLC-PK1 parental cells", "result": "21 ± 0.7", "unit": "µM"}, {"measurement": "mRNA expression of ABCB1", "setting": "[3]", "result": "suppressed"}, {"measurement": "IC50 CYP2D6 inhibition", "setting": "[4]", "result": "no inhibition"}, {"measurement": "mRNA expression of SLCO1B1", "setting": "[5]", "result": "suppressed"}, {"measurement": "mRNA expression of CYP1A2", "setting": "[6]", "result": "induced"}, {"measurement": "mRNA expression of UGT1A9", "setting": "[7]", "result": "induced"}, {"measurement": "IC50", "setting": "[8]", "result": "14.2 ± 1", "unit": "µM"}, {"measurement": "IC50", "setting": "[9]", "result": "26 ± 9.6", "unit": "µM"}]}]}
